The source of these data is paper PMC8136874, “The entry reaction of the plant shikimate pathway is subjected to highly complex metabolite-mediated regulation” (The Plant Cell, 2021).

Assay [1] concerns the target T1, AthDHS1 (Arabidopsis thaliana, UniProt P29976).
T1 construct: AthDHS1; residues 49–525; hexa-histidine; made in house; host or cells: E. coli Rosetta2 (DE3), pET28a
Kind of assay: DHS enzymatic activity assay with recombinant AthDHS1. The class given is biochemical. The conditions noted are these: 1 mM effector. As to the method:
(§1) Unless otherwise noted, DHS enzymatic activity was monitored as previously described ([Liu et al., 2008]), with several optimizations for high-throughput assays with eight-strip PCR tubes and a thermal cycler. The enzyme solution (7.7 µL) containing 50 mM HEPES (pH 7.4) was preincubated with an effector molecule(s) at room temperature for 10 min. For assays using recombinant protein and enzyme fraction isolated from plant leaves, 0.01–0.05 µg and approximately 50 µg of proteins were used, respectively. After adding 0.5 µL of 0.1 M DTT, the samples were further incubated at room temperature for 15 min. […] The enzyme reaction was started by adding 6.8 µL of the substrate solution, then incubated at 37°C for 20 min, and terminated by adding 30 µL of 0.6 M trichloroacetic acid. After brief centrifugation, 5 µL of 200 mM NaIO4 (sodium meta-periodate) in 9 N H3PO4 was added to oxidize the enzymatic product and incubate at 25°C for 20 min. To stop the oxidation reaction, 20 µL of 0.75 M NaAsO2 (sodium arsenite), which was dissolved in 0.5 M Na2SO4 and 0.05 M H2SO4, was immediately mixed. After 5 min of incubation at room temperature, one-third of the sample solution was transferred to a new tube to be mixed with 50 µL of 40 mM thiobarbituric acid and incubated at 99°C for 15 min in a thermal cycler. Developed pink chromophore was extracted by putting the final solutions with 600 µL of cyclohexanone in eight-strip solvent-resistant plastic tubes, mixing vigorously and centrifuging them at 4,500 × g for 3 min to separate water- and cyclohexanone-based layers. The absorbance of the pink supernatant was read at 549 nm with the microplate reader (Infinite 200 PRO, TECAN, Männedorf, Switzerland) to calculate DAHP production with the molar extinction coefficient at 549 nm (ε = 549 nm) of 4.5 × 10^4/M/cm. Reaction mixtures with boiled enzyme or without any substrates were run in parallel and used as negative controls to estimate the background signal for recombinant enzymes or enzymatic fraction from plant tissues, respectively.
(§2) For determination of kinetic parameters, the data of enzymatic activities measured in the presence of various concentration of substrates were calculated with the Michaelis–Menten equation in Graphpad Prism 6 (GraphPad Software, San Diego, CA, USA).

The target in assay [2] is T2, AthDHS2 (Arabidopsis thaliana, UniProt Q00218).
T2 construct: AthDHS2; residues 34–507; hexa-histidine; made in house; host or cells: E. coli Rosetta2 (DE3), pET28a
T2 sequence (Q00218 34-507): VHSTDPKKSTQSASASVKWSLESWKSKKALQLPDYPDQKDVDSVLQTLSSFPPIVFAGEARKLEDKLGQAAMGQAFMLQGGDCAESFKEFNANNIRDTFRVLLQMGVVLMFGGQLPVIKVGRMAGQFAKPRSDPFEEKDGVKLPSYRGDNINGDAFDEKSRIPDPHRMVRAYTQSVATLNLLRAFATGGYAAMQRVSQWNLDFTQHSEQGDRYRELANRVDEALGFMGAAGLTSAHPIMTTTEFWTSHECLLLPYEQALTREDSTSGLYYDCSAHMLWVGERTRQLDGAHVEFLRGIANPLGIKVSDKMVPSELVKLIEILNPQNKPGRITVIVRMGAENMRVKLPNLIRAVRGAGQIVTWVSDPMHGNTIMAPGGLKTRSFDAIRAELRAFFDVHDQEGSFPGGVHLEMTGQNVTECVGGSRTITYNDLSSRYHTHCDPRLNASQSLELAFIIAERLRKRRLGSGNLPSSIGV
Kind of assay: DHS enzymatic activity assay with recombinant AthDHS2. The class given is biochemical. The conditions noted are these: 1 mM effector.

For assay [3], the target named is AthDHS3 (Arabidopsis thaliana, UniProt Q9SK84). Kind of assay: DHS enzymatic activity assay with recombinant AthDHS3. It is filed as biochemical. The conditions noted are these: 1 mM effector. As to the method:
as §1, §2

The subject of assay [4] is DHS activity from mung bean (Vigna radiata) seedlings. Details: method as in Rubin and Jensen, 1985. The note with it: ref Rubin and Jensen, 1985; cited from earlier work.
The subject of assay [5] is DHS activity from spinach (Spinacia oleracea) leaves. On the set-up: method as in Doong et al., 1993. The note with it: ref Doong et al., 1993; cited from earlier work.

T1 sequence (P29976 49-525): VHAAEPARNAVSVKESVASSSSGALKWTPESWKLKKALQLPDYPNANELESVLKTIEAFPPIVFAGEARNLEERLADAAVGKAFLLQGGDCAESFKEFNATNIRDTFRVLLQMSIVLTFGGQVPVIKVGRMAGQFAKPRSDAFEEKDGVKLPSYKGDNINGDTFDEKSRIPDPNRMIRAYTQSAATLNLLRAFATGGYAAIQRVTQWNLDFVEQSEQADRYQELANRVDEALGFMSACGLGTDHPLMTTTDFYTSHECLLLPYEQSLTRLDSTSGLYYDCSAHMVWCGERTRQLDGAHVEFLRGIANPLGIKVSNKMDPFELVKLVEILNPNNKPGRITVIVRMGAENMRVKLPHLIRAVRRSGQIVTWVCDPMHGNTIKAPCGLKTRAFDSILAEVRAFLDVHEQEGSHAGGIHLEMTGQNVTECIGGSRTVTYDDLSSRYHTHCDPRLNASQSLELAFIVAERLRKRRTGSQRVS
Chain of AthDHS3 (Q9SK84 entry or part of it): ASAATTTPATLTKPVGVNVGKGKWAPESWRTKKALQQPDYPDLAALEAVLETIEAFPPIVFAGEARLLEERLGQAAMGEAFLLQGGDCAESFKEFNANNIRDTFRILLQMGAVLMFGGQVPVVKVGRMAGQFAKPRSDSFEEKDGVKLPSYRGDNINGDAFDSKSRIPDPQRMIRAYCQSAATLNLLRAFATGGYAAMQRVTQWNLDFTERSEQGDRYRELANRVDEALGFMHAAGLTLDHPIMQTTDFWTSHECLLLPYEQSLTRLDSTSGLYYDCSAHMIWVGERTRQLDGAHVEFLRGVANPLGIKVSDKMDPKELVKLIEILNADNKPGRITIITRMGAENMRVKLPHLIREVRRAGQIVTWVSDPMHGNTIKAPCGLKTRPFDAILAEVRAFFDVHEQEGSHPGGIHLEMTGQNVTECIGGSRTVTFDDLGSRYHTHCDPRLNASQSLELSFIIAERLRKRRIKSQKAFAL

As to `N[C@@H](CC1(C(=O)O)C=CC(O)C=C1)C(=O)O` (some centres unmarked) [arogenate], the “effect on AthDHS1 activity (in words)” value in assay [1] is on record as “did not significantly affect”. Also, in assay [2], the “inhibition of AthDHS2 activity” value is given as approximately 75%. Also, the “effect on AthDHS3 activity (in words)” value in assay [3] is on record as “did not significantly affect”. Further, the “concentration beyond which DHS activity is inhibited” value in assay [4] is on record as more than 0.4 mM; in assay [5], more than 1 mM.
